Source: PubChem BioAssay (NCI)
Several values for one entry are separate records, joined by “and”; a condition that tells them apart may be missing. Identical values can stand only once.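 Dose response: 5 concentrations. Exposure: 48 h. Format: 96-well plates. Endpoint: linear interpolation; highest concentration if not reached. Abbreviation: GI50, concentration required for 50% inhibition of growth. TGI: total growth inhibition.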

Legend:
Test in all cases: NCI anticancer screen, dose series, 48 h
HS 578T breast = test system: HS 578T breast
MDA-MB-435 = test system: MDA-MB-435
SK-MEL-5 melanoma = test system: SK-MEL-5 melanoma
HCC-2998 colon = test system: HCC-2998 colon
IGROV1 ovarian = test system: IGROV1 ovarian
A498 renal = test system: A498 renal
SNB-19 CNS = test system: SNB-19 CNS
CCRF-CEM leukemia = test system: CCRF-CEM leukemia
SK-OV-3 ovarian = test system: SK-OV-3 ovarian
MDA-MB-231 breast = test system: MDA-MB-231 breast

SMILES | TGI (HS 578T breast) | TGI (MDA-MB-435) | TGI (SK-MEL-5 melanoma) | TGI (HCC-2998 colon) | TGI (IGROV1 ovarian) | TGI (A498 renal) | TGI (SNB-19 CNS) | TGI (CCRF-CEM leukemia) | TGI (SK-OV-3 ovarian) | TGI (MDA-MB-231 breast) | GI50 (HS 578T breast) | GI50 (MDA-MB-435) | GI50 (SK-MEL-5 melanoma) | GI50 (HCC-2998 colon) | GI50 (IGROV1 ovarian) | GI50 (A498 renal) | GI50 (SNB-19 CNS) | GI50 (CCRF-CEM leukemia) | GI50 (SK-OV-3 ovarian) | GI50 (MDA-MB-231 breast)
O=C1/C(=C/c2ccc(Cl)cc2)CCC1CN1CCOCC1 (stereo not drawn) | > 100 µM | 14.3 µM | 26.1 µM | 23 µM | 10.5 µM | 36 µM | 30.8 µM | 6.84 µM | 31.9 µM | 11.2 µM |  |  |  |  |  |  |  |  |  | 
CCOC(=O)c1ccc(N(C=O)CCC(=O)CCl)cc1 | 2.89 µM | 0.37 µM | 1.55 µM | 1.54 µM | 8.33 µM | 5.87 µM | 22.4 µM | 1.6 µM | 13.2 µM | 1.16 µM | 0.311 µM | 0.0908 µM | 0.344 µM | 0.372 µM | 0.537 µM | 1.47 µM | 2.37 µM | 0.037 µM | 1.41 µM | 0.275 µM
COc1cc(-c2nc(-c3ccc(-c4nc5ccc(F)cc5[nH]4)cc3)no2)cc(OC)c1OC | 7.36 µM | 10.7 µM | 10.2 µM | 40.4 µM | 14.5 µM | 26.1 µM | > 100 µM | 22.3 µM | 31.4 µM | 7.66 µM | 2.27 µM | 2.73 µM | 2.22 µM | 6.13 µM | 3.81 µM | 4.19 µM | 5.62 µM | 2.97 µM | 4.12 µM | 2.39 µM
CCCCCCCCNC(C)C(O)c1ccc(SC(C)C)cc1 (stereo not drawn) | 4.61 µM | 3.21 µM | 2.99 µM | 3.02 µM | 3.38 µM | 2.86 µM | 3.28 µM | 7.19 µM | 2.98 µM | 3.31 µM | 1.98 µM | 1.69 µM | 1.62 µM | 1.58 µM | 1.81 µM | 1.5 µM | 1.64 µM | 2.44 µM | 1.63 µM | 1.8 µM
COc1ccc(C2=N[C@@H](c3ccc(Cl)cc3)[C@@H](c3ccc(Cl)cc3)N2C(=O)N2CCNC(=O)C2)c(OC(C)C)c1 | 44 µM and 56 µM and 49.3 µM | 27.9 µM and 27.5 µM and 33.3 µM | 27.2 µM and 17.7 µM and 19.6 µM | 27.6 µM and 29.8 µM and 26 µM | 29.4 µM and 26.2 µM and 26.5 µM | 25.6 µM and 21.9 µM and 24.1 µM | 26.1 µM and 30.1 µM and 28.2 µM | 35.4 µM and 42.7 µM and 50 µM | 30.8 µM and 30.9 µM and 30.4 µM | 38.4 µM and 27.1 µM and 29.6 µM | 15.6 µM and 17.3 µM and 17 µM | 14.2 µM and 13.6 µM and 16.1 µM | 14.1 µM and 5.35 µM and 6.56 µM | 14 µM and 15.7 µM and 12.8 µM | 13.1 µM and 6.5 µM and 5.08 µM | 12.6 µM and 6.1 µM and 9.23 µM | 12.5 µM and 15.5 µM and 14.6 µM | 14.7 µM and 16.8 µM and 18.4 µM | 16.8 µM and 15.9 µM and 15.4 µM | 17.2 µM and 13 µM and 14.8 µM
Clc1ccc2nc(Cl)c3ccccc3c2c1 | 72 µM | > 100 µM | > 100 µM | > 100 µM | 86.8 µM | 9.85 µM | 40.2 µM | 52.9 µM | 21.2 µM | 33.2 µM | 8.21 µM | 23.6 µM | > 100 µM | > 100 µM | 6.21 µM | 2.22 µM | 9.26 µM | 20.6 µM | 5.17 µM | 7.27 µM
COc1cc(C(=O)O/N=C(\N)Cc2cccc3ccccc23)cc(OC)c1OC | 41.4 µM | 6.42 µM | 4.71 µM | 34.3 µM | 12.1 µM | 60.7 µM | 21.6 µM | 23.3 µM | 30.6 µM | 18 µM | 6.64 µM | 2.4 µM | 2.05 µM | 17.2 µM | 3.61 µM | 5.79 µM | 8.86 µM | 3.62 µM | 16.5 µM | 4.12 µM
Oc1ccc(Oc2cnc3cc(Cl)ccc3n2)cc1 | > 100 µM | 97.3 µM | > 100 µM | 61.6 µM |  | > 100 µM | > 100 µM | 79.9 µM | > 100 µM | > 100 µM | 35.5 µM | 23.8 µM | 28.6 µM | 24.1 µM |  | 25.4 µM | 91.6 µM | 1.62 µM | > 100 µM | 24.5 µM
O=C(Cn1c(C(=O)c2ccc(Cl)cc2)nc(-c2ccccc2)c1-c1ccccc1)c1ccc(Cl)cc1 | > 100 µM | > 100 µM | > 100 µM | > 100 µM | > 100 µM | > 100 µM | > 100 µM | > 100 µM | > 100 µM | > 100 µM | > 100 µM | > 100 µM | > 100 µM | > 100 µM | > 100 µM | > 100 µM | > 100 µM | > 100 µM | > 100 µM | > 100 µM
O=c1c2c(=NCCN3CCCC3)cc3c(=O)n(CCCN4CCOCC4)c(=O)c4ccc(c(O)n1CCCN1CCOCC1)c2c4-3 | 5.24 µM | 0.264 µM | 0.918 µM | 0.563 µM | 1.5 µM | 0.981 µM | 2.09 µM | 1.59 µM | 2.15 µM | 0.919 µM | 1.18 µM | 0.122 µM | 0.442 µM | 0.0603 µM | 0.0479 µM | 0.173 µM | 0.168 µM | 0.0532 µM | 0.381 µM | 0.197 µM
O=C1CC(c2ccsc2)c2snc(-c3ccc(Cl)cc3)c2N1 (stereo not drawn) | > 100 µM | 0.977 µM | 2.4 µM | > 100 µM | > 100 µM | 7.94 µM | > 100 µM |  | 12 µM | > 100 µM | 2.59 µM | 0.26 µM | 0.404 µM | 1.99 µM | 2.87 µM | 1.09 µM | 3.78 µM |  | 2.17 µM | 1.33 µM
COc1ccc(-c2nc(-c3ccccn3)c(-c3ccccn3)n2CC(C)C)cc1OC1CCCC1 | 79.4 µM | > 165 µM | 38.4 µM |  | > 165 µM | 82.7 µM | > 165 µM | 59.8 µM | 116 µM | 125 µM | 9.71 µM | 31.3 µM | 11.4 µM |  | 11.5 µM | 16.5 µM | 30.2 µM | 7.54 µM | 27.6 µM | 18.2 µM
Cc1cn([C@H]2C[C@H](O)[C@@H](CO)O2)c(=O)nc1N | > 100 µM | > 100 µM | > 100 µM |  | > 100 µM | > 100 µM | > 100 µM | > 100 µM | > 100 µM | > 100 µM |  |  |  |  |  |  |  |  |  | 
